{"source": "patent US4771041A", "about": "“Method for combating virus infection” (priority 1976, dated 1988)", "key": {"[1]": {"system": "reverse transcriptase from RMuLV", "assay": "Cell-free reverse transcriptase inhibition, RMuLV", "format": "biochemical, Rauscher murine leukemia virus", "settings": "template/primer (rA)n.(dT)10", "procedure": "Reverse transcriptase from various retroviruses have been tested in cell-free assays for inhibition by phosphonoformic acid and phosphonoacetic acid. The assay conditions have been described by Collaborative Research, Inc, 1365 Main Street, Waltham, Mass., USA \"Assay kit for mammalian viral reverse transcriptase\". BLV and VV were prepared in this laboratory and all other viruses and viral enzyme were obtained from Dr. K Nilsson, Department of Pathology, University of Uppsala and from Boehringer Mannheim, Germany. Phosphonoformic acid (PFA) and phosphonoacetic acid (PAA) were added at pH 7.2 to the reaction mixtures at the start of the reaction.\nRauscher murine leukemia virus; RMuLV, visna virus; VV, avian myeloblastosis virus; AMV, bovine leukemia virus; BLV, baboon endogenous virus; BaEV, simian sarcoma virus; SSV."}, "[2]": {"target": "HTLV-III reverse transcriptase (Human immunodeficiency virus type 1 group M subtype B, UniProt P03366)", "assay": "HTLV-III reverse transcriptase assay", "format": "biochemical", "procedure": "The purified enzyme was stored in 50 mM Tris-HCl (pH 7.5), 1 mM dithiothreitol (DTT), 0.01% Triton X-100 and 20% glycerol. Reverse transcriptase assays were carried out in a reaction mixture (50 μl) containing 50 mM Tris-HCl (pH 7.5), 5 mM DTT, 100 mM potassium chloride, 0.01% Triton X-100 or NP40, 10 μg/ml (dT)15.(A)n as template primer and /^3 H/deoxythymidine triphosphate (/^3 H/-dTTP). The reaction mixture was incubated for 1 hour at 37° and the reaction was stopped by the addition of 50 μg of yeast tRNA and 2 ml of 10% solution of trichloroacetic acid (TCA) containing 1 mM sodium pyrophosphate. The samples were filtered on millipore filters (0.45 μm), washed first with 5% TCA solution (5 times) and then with 2 ml of 70% ethanol. The filters were dried under a heat lamp, scintillation fluid was added and the radioactivity counted in a β-scintillation counter.\nThe effect of foscarnet on purified HTLV-III reverse transcriptase (RT) was assayed as a function of drug concentration."}, "[3]": {"set-up": "species or system Cynomolgus monkeys", "settings": "cynomolgus monkey, in vivo", "procedure": "Phosphonoformic acid, also denoted PFA and phosphonoacetic acid, also denoted PAA were used in the form of their trisodium and disodium salt, respectively. The following equimolar compositions of the two test compounds were used: […]\nTwo adult male Cynomolgus monkeys were treated once daily for 7 days with PFA or PAA in Arlatone cream. Treatment was done both by topical application of 0.2 ml cream on an area of 3×7 cm on the upper part of the arms and by application of 0.2 ml of cream on the penis and the adjacent skin. During application of cream, the animals were lightly anaesthetized with Ketalar®, given intramuscularly. All applications were 0.2 ml each on day 6/3, 7/3, 8/3, 9/3, 10/3, 11/3 and 12/3 1978."}, "[4]": {"system": "influenza virus (WSN)", "assay": "Influenza virus (WSN) plaque assay on MDCK monolayers", "format": "cell-based, influenza (WSN Wilson Smith Neurotropic type A)", "settings": "unidentified influenza virus, read-out: Inhibition of plaque"}, "[5]": {"settings": "guinea pig, in vivo", "procedure": "Phosphonoformic acid and phosphonoacetic acid were used as their trisodium and disodium salts, respectively. The test substances were used in 1% solutions.\nGuinea-pigs of the Dunkin-Hartley strain of both sexes and weighing 200-300 g were used. The back of the animal was shaved and depilated with Opilca® on the day before starting the application of the solutions. The back was divided into six squares in the middle of which 30 μl of the test solutions was applied. In a given group of animals the different solutions were applied in a randomized order alternating between sites. However, the same site was used for repeated application of a given solution.\nThe irritation was scored on scales of 0 to 3, each grade corresponding to the following specific criteria of irritation:\n1=slight erythema or edema or no hair growth\n2=moderate erythema or edema or skin discoloration\n3=marked erythema or edema or necrosis including crust formation.\nThe scoring was carried out blindly using coded solutions.\nThe scores of all the applications for a given solution and time were added and the average score was calculated.\nThe solvent used was a mixture of glycerol 10.0% (w/v), Tween 80 0.1% and aq sterile ad 100. All solutions were adjusted to pH 6.5 with hydrochloric acid or aqueous sodium hydroxide as required. Thirty μl of 1.0% solutions of phosphonoformic acid and phosphonoacetic acid respectively was applied twice daily during three days to each of six guinea pigs."}, "[6]": {"target": "calf thymus DNA dependent RNA polymerase fraction A (DCA) (Bos taurus, UniProt A6QLS0+E1BIX2)", "sequence (E1BIX2 entry or part of it)": "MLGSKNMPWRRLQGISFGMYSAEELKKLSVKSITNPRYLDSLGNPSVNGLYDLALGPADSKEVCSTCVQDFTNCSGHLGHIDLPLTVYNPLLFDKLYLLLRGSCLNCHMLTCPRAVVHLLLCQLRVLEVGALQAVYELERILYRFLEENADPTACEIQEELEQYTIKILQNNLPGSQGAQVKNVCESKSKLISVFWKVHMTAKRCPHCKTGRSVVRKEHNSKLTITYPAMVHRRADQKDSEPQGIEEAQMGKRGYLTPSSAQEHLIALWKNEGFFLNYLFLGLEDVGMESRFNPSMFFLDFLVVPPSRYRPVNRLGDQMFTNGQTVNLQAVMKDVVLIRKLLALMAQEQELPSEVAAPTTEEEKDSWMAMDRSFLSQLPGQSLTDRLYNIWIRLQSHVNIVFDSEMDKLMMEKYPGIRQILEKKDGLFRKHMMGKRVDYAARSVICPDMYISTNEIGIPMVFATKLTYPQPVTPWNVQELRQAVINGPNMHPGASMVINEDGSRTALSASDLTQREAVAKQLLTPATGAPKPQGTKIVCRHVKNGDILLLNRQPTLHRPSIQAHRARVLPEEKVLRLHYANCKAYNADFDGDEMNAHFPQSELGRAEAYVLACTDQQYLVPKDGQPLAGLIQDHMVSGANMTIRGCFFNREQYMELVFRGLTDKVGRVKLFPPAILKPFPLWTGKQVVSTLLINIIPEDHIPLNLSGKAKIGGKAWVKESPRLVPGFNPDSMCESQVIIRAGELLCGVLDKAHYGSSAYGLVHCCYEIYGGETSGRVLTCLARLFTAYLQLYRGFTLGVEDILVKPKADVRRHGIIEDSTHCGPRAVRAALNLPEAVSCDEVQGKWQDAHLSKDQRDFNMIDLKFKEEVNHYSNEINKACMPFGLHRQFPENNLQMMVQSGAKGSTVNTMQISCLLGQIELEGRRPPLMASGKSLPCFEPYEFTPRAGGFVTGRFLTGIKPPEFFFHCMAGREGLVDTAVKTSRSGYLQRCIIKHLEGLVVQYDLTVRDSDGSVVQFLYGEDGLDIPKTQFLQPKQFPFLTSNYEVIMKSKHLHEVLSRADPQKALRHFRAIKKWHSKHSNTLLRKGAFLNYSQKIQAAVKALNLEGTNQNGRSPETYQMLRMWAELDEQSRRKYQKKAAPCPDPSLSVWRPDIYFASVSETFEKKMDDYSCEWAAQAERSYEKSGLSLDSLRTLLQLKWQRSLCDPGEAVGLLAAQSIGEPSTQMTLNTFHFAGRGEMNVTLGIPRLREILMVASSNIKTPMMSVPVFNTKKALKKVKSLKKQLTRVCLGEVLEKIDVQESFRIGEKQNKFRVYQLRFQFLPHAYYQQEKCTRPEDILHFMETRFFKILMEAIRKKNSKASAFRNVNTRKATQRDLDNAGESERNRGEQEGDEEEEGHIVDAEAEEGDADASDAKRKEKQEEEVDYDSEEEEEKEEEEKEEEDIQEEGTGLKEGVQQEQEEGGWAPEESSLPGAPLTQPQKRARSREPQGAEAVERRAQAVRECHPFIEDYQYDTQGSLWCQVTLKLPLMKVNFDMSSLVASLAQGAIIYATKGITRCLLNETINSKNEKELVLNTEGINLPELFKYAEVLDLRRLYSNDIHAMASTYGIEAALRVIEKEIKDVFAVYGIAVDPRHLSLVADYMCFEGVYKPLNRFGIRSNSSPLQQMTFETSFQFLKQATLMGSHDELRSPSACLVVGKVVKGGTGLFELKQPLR", "sequence (O15160 whole entry, further chain)": "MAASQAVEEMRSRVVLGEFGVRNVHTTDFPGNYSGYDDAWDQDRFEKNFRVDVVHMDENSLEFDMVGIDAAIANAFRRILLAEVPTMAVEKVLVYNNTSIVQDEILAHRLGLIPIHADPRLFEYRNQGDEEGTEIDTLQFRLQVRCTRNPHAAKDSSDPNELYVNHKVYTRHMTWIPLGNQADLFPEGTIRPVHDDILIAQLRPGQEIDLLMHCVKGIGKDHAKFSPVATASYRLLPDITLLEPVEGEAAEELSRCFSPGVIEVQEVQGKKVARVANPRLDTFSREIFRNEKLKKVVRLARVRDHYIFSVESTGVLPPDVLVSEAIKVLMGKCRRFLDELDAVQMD", "sequence (Q9P1U0 whole entry, further chain)": "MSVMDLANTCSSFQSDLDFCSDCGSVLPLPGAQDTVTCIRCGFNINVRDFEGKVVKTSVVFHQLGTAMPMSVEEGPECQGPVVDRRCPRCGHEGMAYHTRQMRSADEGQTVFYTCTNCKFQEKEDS", "sequence (A6QLS0 entry or part of it)": "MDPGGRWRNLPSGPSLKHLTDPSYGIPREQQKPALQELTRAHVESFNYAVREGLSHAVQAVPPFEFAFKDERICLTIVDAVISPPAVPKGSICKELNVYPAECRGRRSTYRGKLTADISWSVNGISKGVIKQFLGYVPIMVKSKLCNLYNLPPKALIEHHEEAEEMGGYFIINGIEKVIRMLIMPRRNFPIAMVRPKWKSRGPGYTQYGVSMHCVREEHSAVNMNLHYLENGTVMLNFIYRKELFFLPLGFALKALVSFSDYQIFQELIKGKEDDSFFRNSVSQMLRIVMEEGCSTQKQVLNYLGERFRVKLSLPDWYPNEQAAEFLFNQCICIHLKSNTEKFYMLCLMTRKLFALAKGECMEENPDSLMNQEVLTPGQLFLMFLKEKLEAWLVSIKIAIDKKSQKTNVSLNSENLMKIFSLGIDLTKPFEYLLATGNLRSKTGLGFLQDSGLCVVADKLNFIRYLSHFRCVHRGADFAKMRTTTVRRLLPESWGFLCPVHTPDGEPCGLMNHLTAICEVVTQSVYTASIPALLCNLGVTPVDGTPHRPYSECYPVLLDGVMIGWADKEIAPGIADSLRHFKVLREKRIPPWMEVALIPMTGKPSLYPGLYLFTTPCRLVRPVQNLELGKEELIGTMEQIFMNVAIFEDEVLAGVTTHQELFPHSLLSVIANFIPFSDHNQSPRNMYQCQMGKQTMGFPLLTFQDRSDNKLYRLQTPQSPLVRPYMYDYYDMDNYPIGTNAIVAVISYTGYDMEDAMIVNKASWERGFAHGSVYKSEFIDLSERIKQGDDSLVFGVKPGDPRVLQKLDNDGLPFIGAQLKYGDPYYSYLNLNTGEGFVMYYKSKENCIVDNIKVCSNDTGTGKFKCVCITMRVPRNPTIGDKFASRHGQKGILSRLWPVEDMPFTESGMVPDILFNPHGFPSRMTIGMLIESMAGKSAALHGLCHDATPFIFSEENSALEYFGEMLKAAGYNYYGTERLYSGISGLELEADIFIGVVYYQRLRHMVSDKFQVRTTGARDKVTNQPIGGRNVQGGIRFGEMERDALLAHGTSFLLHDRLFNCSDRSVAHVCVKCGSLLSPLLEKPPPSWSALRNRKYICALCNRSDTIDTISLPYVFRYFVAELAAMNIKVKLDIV", "sequence (Q3B726 whole entry, further chain)": "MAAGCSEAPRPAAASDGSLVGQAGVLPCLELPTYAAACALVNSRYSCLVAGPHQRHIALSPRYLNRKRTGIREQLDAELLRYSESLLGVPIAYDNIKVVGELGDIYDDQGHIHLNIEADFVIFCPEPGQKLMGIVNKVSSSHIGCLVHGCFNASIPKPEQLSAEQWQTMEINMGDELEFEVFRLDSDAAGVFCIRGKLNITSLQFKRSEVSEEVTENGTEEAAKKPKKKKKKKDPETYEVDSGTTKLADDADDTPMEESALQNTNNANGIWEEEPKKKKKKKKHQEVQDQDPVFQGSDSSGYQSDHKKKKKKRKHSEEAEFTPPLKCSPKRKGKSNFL", "sequence (P0DPB6 whole entry, further chain)": "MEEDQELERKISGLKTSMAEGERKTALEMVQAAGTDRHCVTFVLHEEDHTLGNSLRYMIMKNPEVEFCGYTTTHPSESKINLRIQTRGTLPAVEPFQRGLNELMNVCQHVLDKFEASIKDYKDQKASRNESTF", "assay": "Inhibition of calf thymus DNA dependent RNA polymerase fraction A", "format": "biochemical", "procedure": "Polymerases, nucleic acid template nucleoside triphosphates, of which guanosine triphosphate is tritium-labelled, salt and buffer are mixed at 0° C. in a total volume of 125 μl (for herpes DNA polymerase, see F. below). The concentrations of the nucleoside triphosphates UTP (uridine triphosphate), CTP (cytidinetriphosphate), GTP (guanosinetriphosphate) and ATP (adenosinetriphosphate) were generall 400, 400, 400, and 2000 μM, respectively. The test compound is also added in various concentrations to the mixture obtained. A standard mixture without test compound is also prepared using the same amounts of the ingredients. The enzyme reaction, i.e. synthesis of nucleic acid, is started by incubating the mixture at 37° C. For influenza RNA polymerases the temperature is 33° C. The reaction is allowed to proceed for 60 minutes in the assay of influenza and Micrococcus polymerases. […] The incorporation of labelled monomer into trichloroacetic acid insoluble nucleic acid product was measured in the following way. […] After drying the discs are measured for radioactivity in a liquid scintillation counter. The difference in radioactivity between samples with and without added compound is used to calculate the inhibition of the polymerase activity. The inhibition is expressed as percentage inhibition using the radioactivity of the standard sample as basis. […]"}}, "data": [{"compound": "O=C(O)P(=O)(O)O", "note": "[phosphonoformic acid]", "values": [{"measurement": "Percent inhibition", "setting": "[1]; 10 μM", "value": 90, "unit": "%"}, {"measurement": "Percent inhibition", "setting": "[1]; 100 μM", "value": 96, "unit": "%"}, {"measurement": "Percent inhibition", "setting": "[1]; 500 μM", "value": "> 99", "unit": "%"}, {"measurement": "IC50", "setting": "[2]; purified enzyme from different virus isolates, (dT)15.(A)n template primer, read-out: concentration causing 50% inhibition of HTLV-III reverse transcriptase activity", "value": "100 to 2000", "unit": "nM"}, {"measurement": "type of inhibition of reverse transcriptase", "setting": "[2]; with respect to substrate and template", "value": "noncompetitive with respect to substrate and uncompetitive with respect to template"}, {"measurement": "Result (skin irritation), area of application penis", "setting": "[3]", "value": "No symptoms"}, {"measurement": "Result (skin irritation), area of application upper arm", "setting": "[3]", "value": "No symptoms"}, {"measurement": "inhibition at 100 µM", "setting": "[4]", "value": 10, "unit": "%"}, {"measurement": "inhibition at 250 µM", "setting": "[4]", "value": 50, "unit": "%"}, {"measurement": "inhibition at 500 µM", "setting": "[4]", "value": 95, "unit": "%"}, {"measurement": "skin condition after two weeks", "setting": "[5]", "value": "the skin is normal with hair after two weeks"}, {"measurement": "inhibition at 500 µM", "setting": "[6]", "value": -3, "unit": "%"}]}]}
